Source: ChEMBL document CHEMBL1124211, “Synthesis and in vitro activity of various derivatives of a novel thromboxane receptor antagonist, (+/-)-(5Z)-7-[3-endo-[(phenylsulfonyl)amino]bicyclo[2.2.1] hept-2-exo-yl]heptenoic acid” (J Med Chem, 1988)

Legend:
Oryctolagus cuniculus = organism: Oryctolagus cuniculus; assay: Inhibition of rabbit platelet rich plasma aggregation induced by 500 uM of arachidonic acid; assay type: functional
Rattus norvegicus [1] = organism: Rattus norvegicus; assay: Inhibition of rat washed platelet aggregation induced by 4 ug/mL of collagen; assay type: functional
Rattus norvegicus [2] = organism: Rattus norvegicus; assay: Inhibitory activity against rat thoracic aorta contraction induced by 30 nM U-46619; assay type: functional
Homo sapiens [3] = organism: Homo sapiens; assay: The synthesis of cyclooxygenase or lipoxygenase derived products (HHT and HETE) in human washed platelets; assay type: functional
Homo sapiens [4] = organism: Homo sapiens; assay: Effect on the synthesis of Thromboxane A2; assay type: functional, organism-based
Homo sapiens [5] = organism: Homo sapiens; assay: Effect on the synthesis of metabolites of arachidonic acid in human platelets; assay type: functional
Homo sapiens [6] = organism: Homo sapiens; assay: The synthesis of cyclooxygenase or lipoxygenase derived products (HHT and HETE) in human washed platelets at dose of 20 uM; assay type: functional, organism-based
Homo sapiens [7] = organism: Homo sapiens; assay: Effect on the synthesis of Thromboxane A2 at dose of 20 uM; assay type: functional, organism-based
Homo sapiens [8] = organism: Homo sapiens; assay: Effect on the synthesis of metabolites of arachidonic acid in human platelets at dose of 10 uM expressed as percent of radioactivity recovered; assay type: functional
Homo sapiens [9] = organism: Homo sapiens; assay: Effect on cyclooxygenase or lipoxygenase derived products(HHT and HETE) in human washed platelets at dose of 1 uM expressed as percent of radioactivity recovered; assay type: functional
Homo sapiens [10] = organism: Homo sapiens; assay: Effect on cyclooxygenase or lipoxygenase derived products (HHT and HETE) in human washed platelets at a dose of 10 uM as percent of radioactivity recovered; assay type: functional
Homo sapiens [11] = organism: Homo sapiens; assay: Effect on the synthesis of metabolites of arachidonic acid in human platelets at a dose of 1 uM; assay type: functional
[12] = biological target: T1, Thromboxane-A synthase (Homo sapiens) (UniProt P24557); assay: Inhibition of thromboxane A2 synthetase from human platelets by 10 uM expressed as percent of radioactivity recovered
T1 sequence (whole entry): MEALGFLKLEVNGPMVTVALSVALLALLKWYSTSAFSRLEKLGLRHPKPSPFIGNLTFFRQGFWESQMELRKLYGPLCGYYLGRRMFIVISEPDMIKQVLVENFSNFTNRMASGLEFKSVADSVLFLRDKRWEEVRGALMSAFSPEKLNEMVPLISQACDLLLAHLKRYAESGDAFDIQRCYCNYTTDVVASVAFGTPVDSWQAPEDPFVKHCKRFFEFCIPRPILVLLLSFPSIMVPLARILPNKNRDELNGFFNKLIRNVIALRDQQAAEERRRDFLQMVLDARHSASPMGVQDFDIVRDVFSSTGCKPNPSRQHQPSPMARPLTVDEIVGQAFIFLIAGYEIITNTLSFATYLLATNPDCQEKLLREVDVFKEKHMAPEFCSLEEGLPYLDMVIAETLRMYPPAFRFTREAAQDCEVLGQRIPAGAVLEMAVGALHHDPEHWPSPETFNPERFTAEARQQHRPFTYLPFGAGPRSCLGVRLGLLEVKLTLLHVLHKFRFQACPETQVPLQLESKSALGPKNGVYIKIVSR

[13] = Rattus norvegicus, Thoracic aorta

In the case of `O=C(O)CCC/C=C\C[C@@H]1[C@H](CNNC(=O)Nc2ccccc2)[C@H]2CC[C@H]1O2`, the IC50 (Oryctolagus cuniculus; Oryctolagus cuniculus, Plasma) is reported as 9000 nM, the IC50 (Rattus norvegicus [1]; Rattus norvegicus) is reported as 3 nM and the IC50 (Rattus norvegicus [2]; [13]) is reported as 14.5 nM.
In the case of `O=C(O)CCC/C=C\C[C@H]1[C@@H]2CCC(C2)[C@@H]1NS(=O)(=O)CCCc1ccccc1`, the IC50 (Oryctolagus cuniculus; Oryctolagus cuniculus, Plasma) is reported as 14000 nM, the IC50 (Rattus norvegicus [1]; Rattus norvegicus) is reported as 10.9 nM and the IC50 (Rattus norvegicus [2]; [13]) is reported as 10.9 nM.
In the case of `O=C(O)CCC/C=C\C[C@H]1[C@@H]2CCC(C2)[C@@H]1NS(=O)(=O)c1ccc(C(=O)O)cc1`, the IC50 (Oryctolagus cuniculus; Oryctolagus cuniculus, Plasma) is reported as 800000 nM and the IC50 (Rattus norvegicus [1]; Rattus norvegicus) is reported as > 1000 nM.
Compound `O=C(O)CCC/C=C\C[C@H]1[C@@H]2CCC(C2)[C@@H]1NS(=O)(=O)c1ccc(-c2ccccc2)cc1` has an IC50 (Oryctolagus cuniculus; Oryctolagus cuniculus, Plasma) of 200000 nM, an IC50 (Rattus norvegicus [1]; Rattus norvegicus) of 6 nM and an IC50 (Rattus norvegicus [2]; [13]) of 9.8 nM.
Work on `O=C(O)c1ccc(OCCn2ccnc2)cc1` yielded a Recovery (Homo sapiens [3]) of 19.3%, a Recovery (Homo sapiens [4]) of 0.74% and a Recovery (Homo sapiens [5]) of 11.8%.
`O=C(O)CCC/C=C\C[C@H]1[C@@H]2CCC(C2)[C@@H]1NS(=O)(=O)c1ccc(F)cc1` showed an IC50 (Oryctolagus cuniculus; Oryctolagus cuniculus, Plasma) of 600 nM and an IC50 (Rattus norvegicus [1]; Rattus norvegicus) of 2.9 nM.
For `O=C(O)CCC/C=C\C[C@H]1[C@@H]2CCC(C2)[C@@H]1NS(=O)(=O)c1ccccc1` (single isomer, unassigned; (-)), the IC50 (Oryctolagus cuniculus) was 7400 nM, the IC50 (Rattus norvegicus [1]) was 13.4 nM and the IC50 (Rattus norvegicus [2]) was 15.3 nM.
Compound `COc1ccc2c(c1)c(CC(=O)O)c(C)n2C(=O)c1ccc(Cl)cc1` has a Recovery (Homo sapiens [5]) of 28.4%, a Recovery (Homo sapiens [6]) of 15% and a Recovery (Homo sapiens [7]) of 0.34%.
`O=C(O)CCC/C=C\C[C@H]1[C@@H]2CCC(C2)[C@@H]1NC(=O)c1ccccc1` was tested, and the IC50 (Oryctolagus cuniculus; Oryctolagus cuniculus, Plasma) was > 800000 nM, the IC50 (Rattus norvegicus [1]; Rattus norvegicus) was 450 nM and the IC50 (Rattus norvegicus [2]; [13]) was 3410 nM.
`Cc1ccc(S(=O)(=O)N[C@H]2C3CC[C@H](C3)[C@@H]2C/C=C\CCCC(=O)O)cc1` was tested, and the IC50 (Oryctolagus cuniculus; Oryctolagus cuniculus, Plasma) was 500 nM, the IC50 (Rattus norvegicus [1]; Rattus norvegicus) was 2.4 nM and the IC50 (Rattus norvegicus [2]; [13]) was 0.7 nM.
Compound `O=C(O)CCC/C=C\C[C@H]1[C@@H]2CCC(C2)[C@@H]1NS(=O)(=O)c1ccc([N+](=O)[O-])cc1` has an IC50 (Oryctolagus cuniculus; Oryctolagus cuniculus, Plasma) of 1400 nM and an IC50 (Rattus norvegicus [1]; Rattus norvegicus) of 8.9 nM.
For `O=C(O)CCC/C=C\C[C@H]1[C@@H]2CCC(C2)[C@@H]1NS(=O)(=O)c1ccccc1` (stereo in doubt; 14a) [listing 1 of 2 here], the Recovery (Homo sapiens [8]) was 14.2%, the Recovery (Homo sapiens [9]) was 24% and the Recovery (Homo sapiens [10]) was 23.2%. It also gave a Recovery (Homo sapiens [11]) of 14.3% and a Recovery [12] of 2.1%.
With `CCc1ccc(S(=O)(=O)N[C@H]2C3CC[C@H](C3)[C@@H]2C/C=C\CCCC(=O)O)cc1` the IC50 (Oryctolagus cuniculus; Oryctolagus cuniculus, Plasma) was 4600 nM, the IC50 (Rattus norvegicus [1]; Rattus norvegicus) was 3.3 nM and the IC50 (Rattus norvegicus [2]; [13]) was 1.5 nM.
Compound `O=C(O)CCC/C=C\C[C@H]1[C@@H]2CCC(C2)[C@@H]1NS(=O)(=O)c1ccccc1` (single isomer, unassigned; (+)) has an IC50 (Oryctolagus cuniculus) of 600 nM, an IC50 (Rattus norvegicus [1]) of 1.8 nM and an IC50 (Rattus norvegicus [2]) of 0.49 nM.
Work on `Cc1ccccc1S(=O)(=O)N[C@H]1C2CC[C@H](C2)[C@@H]1C/C=C\CCCC(=O)O` yielded an IC50 (Oryctolagus cuniculus; Oryctolagus cuniculus, Plasma) of 6200 nM, an IC50 (Rattus norvegicus [1]; Rattus norvegicus) of 4.3 nM and an IC50 (Rattus norvegicus [2]; [13]) of 3.7 nM.
`O=C(O)CCC/C=C\C[C@H]1[C@@H]2CCC(C2)[C@@H]1NS(=O)(=O)Cc1ccccc1` was tested, and the IC50 (Oryctolagus cuniculus; Oryctolagus cuniculus, Plasma) was 113000 nM, the IC50 (Rattus norvegicus [1]; Rattus norvegicus) was 26 nM and the IC50 (Rattus norvegicus [2]; [13]) was 111 nM.
Work on `Cc1cccc(S(=O)(=O)N[C@H]2C3CC[C@H](C3)[C@@H]2C/C=C\CCCC(=O)O)c1` yielded an IC50 (Oryctolagus cuniculus; Oryctolagus cuniculus, Plasma) of 1700 nM, an IC50 (Rattus norvegicus [1]; Rattus norvegicus) of 5.6 nM and an IC50 (Rattus norvegicus [2]; [13]) of 3.2 nM.
Compound `O=C(O)CCC/C=C\C[C@H]1[C@@H]2CCC(C2)[C@@H]1NS(=O)(=O)c1ccc(Cl)cc1` has an IC50 (Oryctolagus cuniculus; Oryctolagus cuniculus, Plasma) of 300 nM and an IC50 (Rattus norvegicus [1]; Rattus norvegicus) of 2.9 nM.
Compound `O=C(O)CCC/C=C\C[C@H]1[C@@H]2CCC(C2)[C@@H]1NS(=O)(=O)c1ccc(O)cc1` has an IC50 (Oryctolagus cuniculus; Oryctolagus cuniculus, Plasma) of 500 nM and an IC50 (Rattus norvegicus [1]; Rattus norvegicus) of 4 nM.
`CN(C)c1ccc(S(=O)(=O)N[C@H]2C3CC[C@H](C3)[C@@H]2C/C=C\CCCC(=O)O)cc1` showed an IC50 (Oryctolagus cuniculus; Oryctolagus cuniculus, Plasma) of 7100 nM and an IC50 (Rattus norvegicus [1]; Rattus norvegicus) of 52 nM.
In the case of `COc1ccc(S(=O)(=O)N[C@H]2C3CC[C@H](C3)[C@@H]2C/C=C\CCCC(=O)O)cc1`, the IC50 (Oryctolagus cuniculus; Oryctolagus cuniculus, Plasma) is reported as 1700 nM and the IC50 (Rattus norvegicus [1]; Rattus norvegicus) is reported as 3.9 nM.
`CCCCCc1ccc(S(=O)(=O)N[C@H]2C3CC[C@H](C3)[C@@H]2C/C=C\CCCC(=O)O)cc1` showed an IC50 (Oryctolagus cuniculus; Oryctolagus cuniculus, Plasma) of 800000 nM and an IC50 (Rattus norvegicus [1]; Rattus norvegicus) of 14.5 nM.
In the case of `O=C(O)CCC/C=C\C[C@H]1[C@@H]2CCC(C2)[C@@H]1NS(=O)(=O)c1cccc2ccccc12`, the IC50 (Oryctolagus cuniculus; Oryctolagus cuniculus, Plasma) is reported as 1100 nM, the IC50 (Rattus norvegicus [1]; Rattus norvegicus) is reported as 2.7 nM and the IC50 (Rattus norvegicus [2]; [13]) is reported as 2.7 nM.
`O=C(O)CCC/C=C\C[C@H]1[C@@H]2CCC(C2)[C@@H]1NS(=O)(=O)CCc1ccccc1` was tested, and the IC50 (Oryctolagus cuniculus; Oryctolagus cuniculus, Plasma) was 8200 nM, the IC50 (Rattus norvegicus [1]; Rattus norvegicus) was 3.7 nM and the IC50 (Rattus norvegicus [2]; [13]) was 3.4 nM.
For `CCCCCCS(=O)(=O)N[C@H]1C2CC[C@H](C2)[C@@H]1C/C=C\CCCC(=O)O`, the IC50 (Oryctolagus cuniculus; Oryctolagus cuniculus, Plasma) was 13300 nM, the IC50 (Rattus norvegicus [1]; Rattus norvegicus) was 19 nM and the IC50 (Rattus norvegicus [2]; [13]) was 17.2 nM.
With `O=C(O)CCC/C=C\C[C@H]1[C@@H]2CCC(C2)[C@@H]1NS(=O)(=O)c1ccccc1` (stereo in doubt; 14a) [listing 2 of 2 here] the IC50 (Rattus norvegicus [1]) was 2.9 nM and the IC50 (Rattus norvegicus [2]) was 1.4 nM.
In the case of `CS(=O)(=O)N[C@H]1C2CC[C@H](C2)[C@@H]1C/C=C\CCCC(=O)O`, the IC50 (Oryctolagus cuniculus; Oryctolagus cuniculus, Plasma) is reported as 640000 nM, the IC50 (Rattus norvegicus [1]; Rattus norvegicus) is reported as 370 nM and the IC50 (Rattus norvegicus [2]; [13]) is reported as 1580 nM.
